Test results as given in patent US8952024B2, “Herbicidal pyrimidone derivatives” (E I du Pont de Nemours and Company, priority 2009, dated 2015).

Tests used:
Assay type in all cases: in vivo
[1] = tested on: chickweed (Stellaria media); experiment: Test B postemergence plant response
In short: (§1)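 Plants grown in peat/vermiculite medium were sprayed postemergence at 2–18 cm height (1- to 4-leaf stage). After 13–15 days in the greenhouse, response was rated visually against untreated controls on a 0–100 scale (0 no effect, 100 complete control).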

[2] = tested on: windgrass (Apera spica-venti); experiment: Test B postemergence plant response
In short: as §1

[3] = tested on: canarygrass (Phalaris minor); experiment: Test B postemergence plant response
In short: as §1

[4] = tested on: winter barley (Hordeum vulgare); experiment: Test B postemergence plant response
In short: as §1

[5] = tested on: umbrella sedge (Cyperus difformis); experiment: Test B flooded paddy test; conditions: for Plant response rating, Sedge, Umbrella: Flood (flooded paddy test), 13 to 15 days
In short: (§2)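 Visual scores run from 0 (no effect) to 100 (complete control), assigned by comparison with controls 13 to 15 days after treatment. Test compounds went straight into water standing 3 cm above the soil, around plants at the 2-leaf stage kept in a greenhouse.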

[6] = tested on: ducksalad (Heteranthera limosa); experiment: Test B flooded paddy test; conditions: for Plant response rating, Ducksalad: Flood (flooded paddy test), 13 to 15 days
In short: as §2

[7] = tested on: barnyardgrass (Echinochloa crus-galli); experiment: Test B flooded paddy test; conditions: for Plant response rating, Barnyardgrass: Flood (flooded paddy test), 13 to 15 days
In short: as §2

[8] = tested on: rice (Oryza sativa); experiment: Test B flooded paddy test; conditions: for Plant response rating, Rice: Flood (flooded paddy test), 13 to 15 days
In short: as §2

[9] = tested on: morningglory (Ipomoea coccinea); experiment: Test B pre-/postemergence plant response
In short: (§3)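 Visually scored on a 0 to 100 scale after 13 to 15 days in greenhouse versus controls. Treatments were preemergence on seeded loam/sand soil and postemergence on 1- to 4-leaf plants.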

[10] = tested on: bermudagrass (Cynodon dactylon); experiment: Test B pre-/postemergence plant response
In short: as §3

[11] = 31 g ai/ha, postemergence, scale 0 to 100, 0 is no effect, 100 is complete control
[12] = 62 g ai/ha, postemergence, 0 is no effect, 100 is complete control, 13 to 15 days
[13] = Postemergence, 125 g ai/ha, scale 0 to 100 (0 no effect, 100 complete control)
[14] = Postemergence, 250 g ai/ha, scale 0 to 100 (0 no effect, 100 complete control)
[15] = 250 g ai/ha, flooded paddy test, visual rating on 0 to 100 scale (0 no effect, 100 complete control) after 13 to 15 days
[16] = 62 g ai/ha, scale of 0 to 100 where 0 is no effect and 100 is complete control
[17] = 125 g ai/ha, scale 0 to 100, 0 is no effect, 100 is complete control
[18] = Flood, 31 g ai/ha, scale 0 to 100 (0 no effect, 100 complete control)

## COCCn1c(-c2cccs2)ncc(C(=O)C2=C(O)CCCC2=O)c1=O [Compound 108]
[1]; [11]
  Plant response rating, Chickweed: 85
[1]; [12]
  Chickweed plant response rating (0 to 100 scale): 100
[1]; [13]
  Plant response rating, Chickweed: 100
[1]; [14]
  Plant response rating, Chickweed: 100
[2]; [12]
  Windgrass plant response rating (0 to 100 scale): 10
[2]; [13]
  Plant response rating, Windgrass: 30
[3]; [11]
  Plant response rating, Canarygrass: 0
[3]; [12]
  Canarygrass plant response rating (0 to 100 scale): 5
[3]; [13]
  Plant response rating, Canarygrass: 5
[3]; [14]
  Plant response rating, Canarygrass: 5
[4]; [11]
  Plant response rating, Barley: 0
[4]; [12]
  Barley plant response rating (0 to 100 scale): 0
[4]; [13]
  Plant response rating, Barley: 0
[4]; [14]
  Plant response rating, Barley: 0
[5]; [15]
  Plant response rating, Flood, Sedge, Umbrella: 95
[5]; [16]
  Plant response rating, Sedge, Umbrella: 40
[5]; [17]
  Plant response rating, Sedge, Umbrella: 60
[5]; [18]
  Sedge, Umbrella plant response rating: 0
[6]; [15]
  Plant response rating, Flood, Ducksalad: 70
[6]; [16]
  Plant response rating, Ducksalad: 50
[6]; [17]
  Plant response rating, Ducksalad: 60
[6]; [18]
  Ducksalad plant response rating: 40
[7]; [15]
  Plant response rating, Flood, Barnyardgrass: 30
[7]; [16]
  Plant response rating, Barnyardgrass: 0
[7]; [17]
  Plant response rating, Barnyardgrass: 15
[7]; [18]
  Barnyardgrass plant response rating: 0
[8]; [15]
  Plant response rating, Flood, Rice: 10
[8]; [16]
  Plant response rating, Rice: 0
[8]; [17]
  Plant response rating, Rice: 0
[8]; [18]
  Rice plant response rating: 0
[9]; [11]
  Plant response rating, Morningglory: 75
[9]; [12]
  Morningglory plant response rating (0 to 100 scale): 90
[9]; [13]
  Plant response rating, Morningglory: 100
[9]; [14]
  Plant response rating, Morningglory: 100
[10]; [11]
  Plant response rating, Bermudagrass: 85
[10]; [12]
  Bermudagrass plant response rating (0 to 100 scale): 90
[10]; [13]
  Plant response rating, Bermudagrass: 100
[10]; [14]
  Plant response rating, Bermudagrass: 100
